Columns and labels:
[1] = Hum MS stability (human microsomal stability half-life); conditions: human microsomes
HIV-IIIb (wildtype) = experiment: Antiviral assay in MT4 cells, HIV-IIIb wildtype; type: cell-based, HIV-1; conditions: Human immunodeficiency virus 1, IIIB, MT4, 120 h, read-out: WT EC50
Procedure, shortened: (§1)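 Luminescence from CellTiter-Glo after a 5-day culture served as the measure of HIV-1 replication in MT4 cells. Cells were infected beforehand for 3 h with HIV-IIIb (0.004 m.o.i.) and exposed to ten 3-fold compound dilutions. EC50 corresponds to a 50% signal decrease.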

HIV-IIIb IN T174I DE = experiment: Antiviral assay in MT4 cells, HIV-IIIb IN T174I DE virus (from dose escalation passaging); type: cell-based, HIV-1; conditions: Human immunodeficiency virus 1, IIIB, MT4, 120 h, read-out: T174I DE EC50, MT4 cells, HIV-IIIb IN T174I DE (dose escalation), 5 days, CellTiter-Glo
Procedure, shortened: as §1

HIV-IIIb IN T174I BT = experiment: Antiviral assay in MT4 cells, HIV-IIIb IN T174I BT virus (from viral breakthrough); type: cell-based, HIV-1; conditions: Human immunodeficiency virus 1, IIIB, MT4, 120 h, read-out: T174I BT EC50, MT4 cells, HIV-IIIb IN T174I BT (viral breakthrough), 5 days, CellTiter-Glo
Procedure, shortened: as §1

| SMILES | half-life [1] | EC50 (HIV-IIIb (wildtype)) | EC50 (HIV-IIIb IN T174I DE) | EC50 (HIV-IIIb IN T174I BT) |
| --- | --- | --- | --- | --- |
| Cc1cc2nc(-c3ccc4c(c3)c(N3CCN(CC5CC5)CC3)nn4C)sc2c(-c2ccc(Cl)cc2)c1[C@H](OC(C)(C)C)C(=O)O [Compound 100, (S)-2-(tert-butoxy)-2-(7-(4-chlorophenyl)-2-(3-(4-(cyclopropylmethyl)piperazin-1-yl)-1-methyl-1H-indazol-5-yl)-5-methylbenzo[d]thiazol-6-yl)acetic acid] | 3.23 h | 0.01 µM | 3.59 µM | 1.88 µM |
| Cc1cc2nc(-c3ccc4c(c3)c(N3CCN(C)CC3)nn4C)sc2c(-c2ccc(Cl)cc2)c1[C@H](OC1CC1)C(=O)O [Compound 103, (S)-2-(7-(4-chlorophenyl)-5-methyl-2-(1-methyl-3-(4-methylpiperazin-1-yl)-1H-indazol-5-yl)benzo[d]thiazol-6-yl)-2-cyclopropoxyacetic acid] | 2.47 h | 0.032 µM | 0.367 µM | 0.267 µM |
| Cc1cc2nc(-c3ccc4c(c3)c(N3CC(C)(C)N(C)C3=O)nn4C)sc2c(-c2ccc(Cl)cc2)c1[C@H](OC(C)(C)C)C(=O)O [Compound 122, (S)-2-(tert-butoxy)-2-(7-(4-chlorophenyl)-5-methyl-2-(1-methyl-3-(3,4,4-trimethyl-2-oxoimidazolidin-1-yl)-1H-indazol-5-yl)benzo[d]thiazol-6-yl)acetic acid] | 4.48 h | 0.014 µM | 3.81 µM | 1.44 µM |
| COCCN1C(=O)N(c2nn(C)c3ccc(-c4nc5cc(C)c([C@H](OC(C)(C)C)C(=O)O)c(-c6ccc(Cl)cc6)c5s4)cc23)CC1(C)C [Compound 123, (S)-2-(tert-butoxy)-2-(7-(4-chlorophenyl)-2-(3-(3-(2-methoxyethyl)-4,4-dimethyl-2-oxoimidazolidin-1-yl)-1-methyl-1H-indazol-5-yl)-5-methylbenzo[d]thiazol-6-yl)acetic acid] | 1.6 h | 0.011 µM | 7.09 µM | 1.45 µM |
| COCCN1CCC(c2nn(C)c3ccc(-c4nc5cc(C)c([C@H](OC(C)(C)C)C(=O)O)c(-c6ccc(Cl)cc6)c5s4)cc23)CC1 [Compound 125, (S)-2-(tert-butoxy)-2-(7-(4-chloro-phenyl)-2-(3-(1-(2-methoxyethyl)piperidin-4-yl)-1-methyl-1H-indazol-5-yl)-5-methylbenzo[d]thiazol-6-yl) acetic acid] | 4.38 h | 0.008 µM | 0.715 µM | 0.4 µM |
| COC1(C)CN(c2nn(C)c3ccc(-c4nc5cc(C)c([C@H](OC(C)(C)C)C(=O)O)c(-c6ccc(Cl)cc6)c5s4)cc23)C1 [Compound 131, (S)-2-(tert-butoxy)-2-(7-(4-chloro-phenyl)-2-(3-(3-methoxy-3-methylazetidin-1-yl)-1-methyl-1H-indazol-5-yl)-5-methylbenzo[d]thiazol-6-yl) acetic acid] | 4.15 h | 0.01 µM | 3.74 µM | 7.95 µM |
| CCN1CCN(c2nn(C)c3ccc(-c4nc5cc(C)c([C@H](OC(C)(C)C)C(=O)O)c(-c6ccc(Cl)cc6)c5s4)cc23)CC1 [Compound 133, (S)-2-(tert-butoxy)-2-(7-(4-chloro-phenyl)-2-(3-(4-ethylpiperazin-1-yl)-1-methyl-1H-indazol-5-yl)-5-methylbenzo[d]thiazol-6-yl) acetic acid] | 5.82 h | 0.003 µM | 0.439 µM | 0.434 µM |
| COCCOC1CN(c2nn(C)c3ccc(-c4nc5cc(C)c([C@H](OC(C)(C)C)C(=O)O)c(-c6ccc(Cl)cc6)c5s4)cc23)C1 [Compound 134, (S)-2-(tert-butoxy)-2-(7-(4-chloro-phenyl)-2-(3-(3-(2-methoxyethoxy)azetidin-1-yl)-1-methyl-1H-indazol-5-yl)-5-methylbenzo[d]thiazol-6-yl) acetic acid] | 1.48 h | 0.013 µM | 2.24 µM | 1.16 µM |
